Reference: paper PMC5451387, “Structural insights into the elevator-like mechanism of the sodium/citrate symporter CitS” (Scientific Reports, 2017)

Biological target: T1, KpCitS (Klebsiella pneumoniae, UniProt P31602)
T1 construct: gene citS; homodimer; TM7-TM8 loop not modelled
T1 sequence (P31602 1-446): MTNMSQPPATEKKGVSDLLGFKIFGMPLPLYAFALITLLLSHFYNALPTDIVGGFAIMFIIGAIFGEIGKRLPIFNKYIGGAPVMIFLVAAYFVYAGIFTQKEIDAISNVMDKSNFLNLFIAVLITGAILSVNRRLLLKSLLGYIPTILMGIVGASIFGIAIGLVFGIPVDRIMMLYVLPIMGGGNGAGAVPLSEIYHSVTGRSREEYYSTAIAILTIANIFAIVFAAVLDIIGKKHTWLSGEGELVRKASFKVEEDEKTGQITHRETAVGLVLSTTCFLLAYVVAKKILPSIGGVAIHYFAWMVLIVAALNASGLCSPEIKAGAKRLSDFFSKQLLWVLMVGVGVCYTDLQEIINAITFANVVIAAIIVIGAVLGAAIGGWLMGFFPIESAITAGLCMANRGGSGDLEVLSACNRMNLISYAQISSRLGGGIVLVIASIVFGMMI
Assay: X-ray crystal structures, […]-4.[…] A
Assay type: binding
Conditions: sodium-containing buffer; bound at the transport-domain site in outward-facing and asymmetric forms; one citrate per protomer

## O=C(O)CC(O)(CC(=O)O)C(=O)O [citrate]
  X-ray crystal structures, 3.5-4.0 A: Each KpCitS protomer binds one molecule of citrate in the outward-facing and asymmetric conformations
